Measured values: patent US20070184102A1, “LATEX OR PSEUDOLATEX COMPOSITIONS, COATINGS AND COATING PROCESSES” (priority 2006, published 2007)
Read-outs that look alike come from different tables or passages of the source.

Experiments:
[1] = Description: (§1) Aquacoat® ECD was plasticized by stirring with triethyl citrate for 24 hours prior to addition of permeation enhancing agent. The dispersion stability was checked by optical microscopy for aggregation, coagulation or flocculation. Films were cast on Teflon® and cured for 24 hours at 60° C. The cast films were assessed in terms of appearance, transparency, inhomogeneities, or cracks and mechanical properties (semi-quantitative brittleness or flexibility).
[2] = Assessment of cast mixed films (appearance, transparency, inhomogeneities, cracks, brittleness or flexibility); format: physicochemical; settings: films cast on Teflon, cured 24 hours at 60° C.
Description: as §1

[3] = not told, pH 7.4
[4] = 10 to 30% w/w with respect to Aquacoat ECD solids, Aquacoat ECD plasticized with 25% w/w triethyl citrate

| Molecule | Properties of cast mixed films with Aquacoat ECD [2] | Compatibility with / destabilisation of Aquacoat ECD dispersion [1] | other results |
| --- | --- | --- | --- |
| O=P([O-])([O-])O.[Na+].[Na+] [Disodium Hydrogen Phosphate] | inhomogenous films |  | Compatibility with / destabilisation of Aquacoat ECD dispersion [1, 4]: compatible |
| [Cl-].[Na+] [Sodium chloride, Sodium Chloride, reference compound] | inhomogenous films, with recrystallisation and cracking |  | Compatibility with / destabilisation of Aquacoat ECD dispersion [1, 4]: destabilized |
| OC[C@H]1O[C@@](CO)(O[C@H]2O[C@H](CO)[C@@H](O)[C@H](O)[C@H]2O)[C@@H](O)[C@@H]1O [Sucrose] | good films | compatible |  |
| OC[C@H]1O[C@@H](O[C@H]2[C@H](O)[C@@H](O)C(O)O[C@@H]2CO)[C@H](O)[C@@H](O)[C@H]1O (stereo partly drawn) [lactose, Lactose] | good films | compatible |  |
| OC[C@@H](O)[C@@H](O)[C@H](O)[C@H](O)CO [mannitol, Mannitol] | good films | compatible |  |
| OC[C@@H](O)[C@@H](O)[C@H](O)[C@@H](O)CO [sorbitol, Sorbitol] | good films | compatible |  |
| Hydroxypropylmethylcellulose [reference compound] |  | destabilized |  |
| Iota carrageenan [Gelcarin® GP379] |  | not destabilized |  |
| Kappa carrageenan [Gelcarin® GP911] |  | viscous stable dispersions |  |
| Lambda carrageenan [Viscarin® GP209] |  | viscous stable dispersions | Stability of the aqueous ethylcellulose coating dispersions in presence of the additive [1]: stable |
| Microcrystalline cellulose-carrageenan [LustreClear® LC103] |  | very viscous destabilised |  |
| Polyvinyl acetate [Kollicoat® SR 30 D] |  | compatible |  |
| Polyvinyl alcohol-polyethylene glycol graft copolymer [Kollicoat® IR] |  | compatible in dispersion | Stability of the aqueous ethylcellulose coating dispersions in presence of the additive [1]: did not affect; Effect on water permeability (diffusion coefficient of water) of Aquacoat ECD-based films [3]: significantly increased |
| Sodium Carboxymethylcellulose [reference compound] |  | destabilized |  |
| Starch |  | compatible |  |
